Source: the supplement of paper PMC13380429

Tests used:
Details in all cases: 72 h
U2OS [1] = test: cell viability relative to DMSO; higher = less toxic
Vero E6 [2] = test: as above
Calu-3 [3] = test: as above
Caco-2 [4] = test: as above
HepG2 [5] = test: as above
U2OS [6] = test: drug sensitivity score (DSS) for viability; higher = more toxic; extreme values may be limits of the assay
Vero E6 [7] = test: as above
Calu-3 [8] = test: as above
Caco-2 [9] = test: as above
HepG2 [10] = test: as above
U2OS [11] = test: relative viability EC50 (midpoint between 100% and the lowest measured viability); higher = less toxic
Vero E6 [12] = test: as above
Calu-3 [13] = test: as above
Caco-2 [14] = test: as above
HepG2 [15] = test: as above

Compound	cell viability (U2OS [1]; 1 nM) [%]	cell viability (U2OS [1]; 10 nM) [%]	cell viability (U2OS [1]; 100 nM) [%]	cell viability (U2OS [1]; 1000 nM) [%]	cell viability (U2OS [1]; 10000 nM) [%]	cell viability (Vero E6 [2]; 1 nM) [%]	cell viability (Vero E6 [2]; 10 nM) [%]	cell viability (Vero E6 [2]; 100 nM) [%]	cell viability (Vero E6 [2]; 1000 nM) [%]	cell viability (Vero E6 [2]; 10000 nM) [%]	cell viability (Calu-3 [3]; 1 nM) [%]	cell viability (Calu-3 [3]; 10 nM) [%]	cell viability (Calu-3 [3]; 100 nM) [%]	cell viability (Calu-3 [3]; 1000 nM) [%]	cell viability (Calu-3 [3]; 10000 nM) [%]	cell viability (Caco-2 [4]; 1 nM) [%]	cell viability (Caco-2 [4]; 10 nM) [%]	cell viability (Caco-2 [4]; 100 nM) [%]	cell viability (Caco-2 [4]; 1000 nM) [%]	cell viability (Caco-2 [4]; 10000 nM) [%]	cell viability (HepG2 [5]; 1 nM) [%]	cell viability (HepG2 [5]; 10 nM) [%]	cell viability (HepG2 [5]; 100 nM) [%]	cell viability (HepG2 [5]; 1000 nM) [%]	cell viability (HepG2 [5]; 10000 nM) [%]	drug sensitivity score (U2OS [6])	drug sensitivity score (Vero E6 [7])	drug sensitivity score (Calu-3 [8])	drug sensitivity score (Caco-2 [9])	drug sensitivity score (HepG2 [10])	relative viability EC50 (U2OS [11]) [µM]	relative viability EC50 (Vero E6 [12]) [µM]	relative viability EC50 (Calu-3 [13]) [µM]	relative viability EC50 (Caco-2 [14]) [µM]	relative viability EC50 (HepG2 [15]) [µM]
CC(=O)NC[C@H]1CN(c2ccc(-c3ccc(CNCc4cnn[nH]4)cc3)c(F)c2)C(=O)O1 [radezolid]	98.9	98.8	99.7	96.4	94.2	100	96.2	99.3	93.8	93.6	104	97.6	97.4	90.6	101	96.8	106	104	118	87.8	105	106	108	54.4	49.2	0	0	0	0	8.1	> 10	> 10	> 10	> 10	0.472
Cc1cc2nc3c(=O)[nH]c(=O)nc-3n(C[C@H](O)[C@H](O)[C@H](O)CO)c2cc1C [riboflavin]	97.4	101	96.2	102	94.6	96.6	91.9	96.3	94.2	95.4	102	104	86	107	92.2	99	95.3	92.7	107	96.8	95.9	85	93.7	93.4	93	0	0	0	0	0	> 10	> 10	> 10	> 10	> 10
O=c1c2ccccc2nc2n1CCc1c-2[nH]c2ccccc12 [rutaecarpine]	96.5	101	97	106	99.8	103	104	98.3	100	98.8	87	102	98.8	111	87.9	102	100	92.9	97.1	91.6	104	105	98.7	93.7	76.4	0	0	0	0	1.7	> 10	> 10	> 10	> 10	> 10
COc1cc2c(c(OC)c1OC)-c1c(cc3c(c1OC)OCO3)CC(C)C(C)C2 (stereo not given) [schisandrin-B]	101	91.8	102	97.3	93.5	96	98.5	93.4	96.1	101	96.3	83.3	94.5	105	90.1	97.5	99.5	98.9	100	77.4	89.1	99.3	95.8	105	101	0	0	0	0.8	0	> 10	> 10	> 10	> 10	> 10
CCCc1nn(C)c2c(=O)[nH]c(-c3cc(S(=O)(=O)N4CCN(C)CC4)ccc3OCC)nc12 [sildenafil]	99.3	98.3	101	99.9	103	98.3	111	95.1	101	96.1	106	94.6	105	91.8	129	93.7	86.3	93.8	84.6	93.9	96.7	104	99.4	102	81.8	0	0	0	0	0.3	> 10	> 10	> 10	> 10	> 10
CN1CCN(c2ncc(-c3cc(Cl)cc(Cl)c3Cl)c(N)n2)CC1 [sipatrigine]	104	102	104	103	92.9	110	107	100	101	94.5	92.1	105	108	111	92.3	85.5	91.1	92.3	91.8	85.3	100	103	110	98.4	86.4	0	0	0	0	0.2	> 10	> 10	> 10	> 10	> 10
OC[C@@H](O)[C@@H](O)[C@H](O)[C@@H](O)CO [sorbitol]	104	99.5	96.6	101	95.5	102	99.9	103	88.8	92.2	101	98	98.3	102	101	96.4	105	100	109	93.6	95.3	84	94.7	94.8	82.3	0	0.3	0	0	0	> 10	> 10	> 10	> 10	> 10
